Reference: article PMC12190436, “5-Ene-2-arylaminothiazol-4(5H)-ones Induce Apoptosis in Breast Cancer Cells” (Cells, 2025)

Legend:
p53 = p53 concentration, SimpleStep ELISA; format: cell-based, human; details: 5 µM, 24 h, MCF-7
Experimental: To determine the effects of the new 4-thiazolidinone derivatives and the reference drug on the concentration of p53 and cytochrome C in MCF-7 cell lysates or supernatants after 24 h of treatment, highly sensitive SimpleStep ELISA (enzyme-linked immunosorbent assay) kits (Abcam, Cambridge, UK) were applied. The cells were collected and washed thrice with cold PBS and centrifuged at 1000× g for 5 min at 4 °C. Next, the cells were suspended in lysis buffer to acquire cell lysates. Concurrently, the supernatants, acquired after centrifugation, were frozen immediately at −80 °C. The standards, samples, and antibody cocktail were added to the appropriate microtiter plate wells, followed by 1 h incubation at room temperature. The content of microplate wells was extracted, and the wells were washed thrice. Afterwards, a TMB development solution was added to each well. The enzyme–substrate reaction was terminated with a stop solution. The change in color was assessed by UV-VIS Helios Gamma (Unicam/ThermoFisher Scientific Inc., Cleveland, OH, USA) at 450 ± 2 nm wavelength.
Both p53 and cytochrome C proteins play pivotal roles in the process of apoptosis. For this reason, concentrations of the mentioned proteins were measured in MCF-7 cells after 24 h treatment with the tested compounds (Les-6416, Les-6418, Les-6381, Les-6423, Les-6424) in concentrations of 5 µM.

CAKI-1 = format: cell-based
IGROV1 = format: cell-based
HS 578T = format: cell-based
PC-3 = format: cell-based
DU-145 = format: cell-based
TK-10 = format: cell-based
SNB-19 = format: cell-based
T-47D = format: cell-based
SN12C = format: cell-based
CNS Cancer = format: cell-based
786-0 = format: cell-based
Breast Cancer = format: cell-based
OVCAR-5 = format: cell-based
A549/ATCC = format: cell-based
[1] = test system: Non-small Cell Lung Cancer; format: cell-based
MOLT-4 = format: cell-based
M14 = format: cell-based
HCT-116 = format: cell-based
NCI-H266 = format: cell-based
HOP-92 = format: cell-based
MALME -3M = format: cell-based
[2] = Homo sapiens, 48 h, read-out: LC50 (the source's name)

Compound: COc1cc(NC2=NC(=O)C(=Cc3ccc4cc[nH]c4c3)S2)cc(OC)c1OC [Les-6416, 5-((1H-Indol-6-yl)methylene)-2-((3,4,5-trimethoxyphenyl)amino)thiazol-4(5H)-one]
- Concentration of p53 (p53): 2.27 ± 0.55 ng/mL

Compound: COc1cc(NC2=NC(=O)C(=Cc3c[nH]c4ccccc34)S2)cc(OC)c1OC [Les-6418, 5-((1H-Indol-3-yl)methylene)-2-((3,4,5-trimethoxyphenyl)amino)thiazol-4(5H)-one]
- TGI (CAKI-1; CAKI-1, 48 h): 10.3 µM
- SI (TGI) (CAKI-1; CAKI-1, MG_MID_60/value): 1.81
- GI50 (CAKI-1; Homo sapiens, CAKI-1, 48 h): 0.84 µM
- CC50 (CAKI-1; Homo sapiens, CAKI-1, 48 h, read-out: LC50 (the source's name)): 33.1 µM
- GI50 (IGROV1; Homo sapiens, IGROV-1, IGROV1, 48 h): 4.91 µM
- CC50 (IGROV1; Homo sapiens, IGROV-1, IGROV1, 48 h, read-out: LC50 (the source's name)): 57.2 µM
- TGI (IGROV1; IGROV1, 48 h): 21.6 µM
- SI (TGI) (IGROV1; IGROV1, MG_MID_60/value): 0.86
- TGI (HS 578T; 48 h): 11.9 µM
- GI50 (HS 578T; Homo sapiens, 48 h): 2.33 µM
- CC50 (HS 578T; [2]): > 100 µM
- SI (TGI) (HS 578T; MG_MID_60/value): 1.56
- GI50 (PC-3; Homo sapiens, PC-3, 48 h): 2.59 µM
- CC50 (PC-3; Homo sapiens, PC-3, 48 h, read-out: LC50 (the source's name)): 94.2 µM
- TGI (PC-3; PC-3, 48 h): 22.6 µM
- SI (TGI) (PC-3; PC-3, MG_MID_60/value): 0.82
- TGI (DU-145; DU-145, 48 h): 17.2 µM
- SI (TGI) (DU-145; DU-145, MG_MID_60/value): 1.08
- GI50 (DU-145; Homo sapiens, DU-145, 48 h): 4.63 µM
- CC50 (DU-145; Homo sapiens, DU-145, 48 h, read-out: LC50 (the source's name)): 47.4 µM
- GI50 (TK-10; Homo sapiens, TK-10, 48 h): 8.56 µM
- CC50 (TK-10; Homo sapiens, TK-10, 48 h, read-out: LC50 (the source's name)): 55.6 µM
- TGI (TK-10; TK-10, 48 h): 22.8 µM
- SI (TGI) (TK-10; TK-10, MG_MID_60/value): 0.82
- GI50 (SNB-19; Homo sapiens, SNB-19, 48 h): 6.6 µM
- CC50 (SNB-19; Homo sapiens, SNB-19, 48 h, read-out: LC50 (the source's name)): 52.2 µM
- TGI (SNB-19; SNB-19, 48 h): 21.2 µM
- SI (TGI) (SNB-19; SNB-19, MG_MID_60/value): 0.88
- TGI (T-47D; 48 h): 19.7 µM
- GI50 (T-47D; Homo sapiens, T47D, 48 h): 3.58 µM
- CC50 (T-47D; Homo sapiens, T47D, 48 h, read-out: LC50 (the source's name)): 61.2 µM
- SI (TGI) (T-47D; MG_MID_60/value): 0.94
- Growth % (SN12C; 10 μM, one dose, 48 h): −88.00%
- TGI (SN12C; 48 h): 15.1 µM
- GI50 (SN12C; Homo sapiens, 48 h): 3.85 µM
- CC50 (SN12C; [2]): 43.6 µM
- SI (TGI) (SN12C; MG_MID_60/value): 1.23
- MG_MID TGI (CNS Cancer; CNS Cancer subpanel mean): 14.0 µM
- SI (MG_MID TGI) (CNS Cancer; CNS Cancer subpanel, MG_MID_60/value): 1.33
- GI50 (CNS Cancer; Homo sapiens, CNS Cancer subpanel mean, read-out: MG_MID GI50): 3.24 µM
- CC50 (CNS Cancer; Homo sapiens, CNS Cancer subpanel mean, read-out: MG_MID LC50): 46.1 µM
- Growth % (786-0; 786-0, 10 μM, one dose, 48 h): −73.06%
- TGI (786-0; 786-0, 48 h): 11.9 µM
- SI (TGI) (786-0; 786-0, MG_MID_60/value): 1.56
- GI50 (786-0; Homo sapiens, 786-0, 48 h): 2.72 µM
- CC50 (786-0; Homo sapiens, 786-0, 48 h, read-out: LC50 (the source's name)): 55.7 µM
- MG_MID TGI (Breast Cancer; Breast Cancer subpanel mean): 13.2 µM
- SI (MG_MID TGI) (Breast Cancer; Breast Cancer subpanel, MG_MID_60/value): 1.41
- GI50 (Breast Cancer; Homo sapiens, Breast Cancer subpanel mean, read-out: MG_MID GI50): 2.32 µM
- CC50 (Breast Cancer; Homo sapiens, Breast Cancer subpanel mean, read-out: MG_MID LC50): 55.8 µM
- GI50 (OVCAR-5; Homo sapiens, OVCAR-5, 48 h): 4.58 µM
- LC50 (concentration killing 50% of cells) (OVCAR-5; Homo sapiens, OVCAR-5, 48 h): 44.1 µM
- TGI (OVCAR-5; OVCAR-5, 48 h): 17.7 µM
- SI (TGI) (OVCAR-5; OVCAR-5, MG_MID_60/value): 1.05
- TGI (A549/ATCC; 48 h): 16.5 µM
- GI50 (A549/ATCC; Homo sapiens, 48 h): 2.84 µM
- LC50 (A549/ATCC; Homo sapiens, 48 h): 73.6 µM
- SI (TGI) (A549/ATCC; MG_MID_60/value): 1.13
- GI50 ([1]; Homo sapiens, Non-small Cell Lung Cancer subpanel mean, read-out: MG_MID GI50): 3.66 µM
- CC50 ([1]; Homo sapiens, Non-small Cell Lung Cancer subpanel mean, read-out: MG_MID LC50): 61.1 µM
- MG_MID TGI ([1]; Non-small Cell Lung Cancer subpanel mean): 15.6 µM
- SI (MG_MID TGI) ([1]; Non-small Cell Lung Cancer subpanel, MG_MID_60/value): 1.19
- GI50 (MOLT-4; Homo sapiens, MOLT-4, 48 h): 2.63 µM
- CC50 (MOLT-4; Homo sapiens, MOLT-4, 48 h, read-out: LC50 (the source's name)): > 100 µM
- TGI (MOLT-4; MOLT-4, 48 h): 26.0 µM
- SI (GI50) (MOLT-4; MOLT-4, MG_MID_60/value): 1.24
- SI (TGI) (MOLT-4; MOLT-4, MG_MID_60/value): 0.72
- GI50 (M14; Homo sapiens, M14, 48 h): 2.02 µM
- CC50 (M14; Homo sapiens, M14, 48 h, read-out: LC50 (the source's name)): 55.6 µM
- TGI (M14; M14, 48 h): 15.9 µM
- SI (TGI) (M14; M14, MG_MID_60/value): 1.17
- TGI (HCT-116; HCT-116, 48 h): 10.2 µM
- SI (TGI) (HCT-116; HCT-116, MG_MID_60/value): 1.82
- GI50 (HCT-116; Homo sapiens, HCT-116, 48 h): 1.1 µM
- CC50 (HCT-116; Homo sapiens, HCT-116, 48 h, read-out: LC50 (the source's name)): 50.6 µM
- GI50 (NCI-H266; Homo sapiens, NCI-H266, 48 h): 3.18 µM
- CC50 (NCI-H266; Homo sapiens, NCI-H266, 48 h, read-out: LC50 (the source's name)): 68.8 µM
- TGI (NCI-H266; NCI-H266, 48 h): 17.4 µM
- SI (TGI) (NCI-H266; NCI-H266, MG_MID_60/value): 1.07
- Growth % (HOP-92; HOP-92, 10 μM, one dose, 48 h): −72.26%
- TGI (HOP-92; HOP-92, 48 h): 6.38 µM
- SI (TGI) (HOP-92; HOP-92, MG_MID_60/value): 2.92
- GI50 (HOP-92; Homo sapiens, HOP-92, 48 h): 1.98 µM
- CC50 (HOP-92; Homo sapiens, HOP-92, 48 h, read-out: LC50 (the source's name)): 42 µM
- TGI (MALME -3M; 48 h): 15.2 µM
- GI50 (MALME -3M; Homo sapiens, 48 h): 2.01 µM
- CC50 (MALME -3M; [2]): 43.9 µM
- SI (TGI) (MALME -3M; MG_MID_60/value): 1.22
